Experiments:
Assay type in all cases: in vivo
[1] = test system: Diabrotica balteata (Corn Root Worm); test: Example B1: Diabrotica balteata, maize sprouts sprayed, L2 larvae; settings: 96 h, application rate of 200 ppm, 4 days after infestation, in comparison to untreated samples, read-out: effect in at least one of the two categories (mortality or growth inhibition)
Method: Example B1: Diabrotica balteata (Corn Root Worm)
Maize sprouts placed onto an agar layer in 24-well microtiter plates were treated with aqueous test solutions prepared from 10′000 ppm DMSO stock solutions by spraying. After drying, the plates were infested with L2 larvae (6 to 10 per well). The samples were assessed for mortality and growth inhibition in comparison to untreated samples 4 days after infestation.
The following compounds gave an effect of at least 80% in at least one of the two categories (mortality or growth inhibition) at an application rate of 200 ppm: • P2, P3, P4, P5, P6, P7, P8, P14, P15, P16, P17, P18, P19, P20, P21, P22, P23, P24, P25, P27, P28, P29, P30, P31, P32, P33, P34, P35

[2] = test system: Spodoptera littoralis (Egyptian Cotton Leaf Worm); test: Example B9: Spodoptera littoralis, cotton leaf discs sprayed, L1 larvae; settings: foliar, 72 h, application rate of 200 ppm, five L1 larvae, 3 days after infestation, in comparison to untreated samples, read-out: control in at least one of the categories (mortality, anti-feedant effect, or growth inhibition)
Method: Example B9: Spodoptera littoralis (Egyptian Cotton Leaf Worm)
Cotton leaf discs were placed onto agar in 24-well microtiter plates and sprayed with aqueous test solutions prepared from 10′000 ppm DMSO stock solutions. After drying the leaf discs were infested with five L1 larvae. The samples were assessed for mortality, anti-feeding effect, and growth inhibition in comparison to untreated samples 3 days after infestation. Control of Spodoptera littoralis by a test sample is given when at least one of the categories mortality, anti-feedant effect, and growth inhibition is higher than the untreated sample.

[3] = test system: Myzus persicae (Green Peach Aphid); test: Example B13: Myzus persicae, sucrose solution under Parafilm, 96-well; settings: 120 h, application rate of 50 ppm, 5 days after infestation
Text: Example B13: Myzus persicae (Green Peach Aphid)
Test compounds prepared from 10′000 ppm DMSO stock solutions were applied by a liquid handling robot into 96-well microtiter plates and mixed with a sucrose solution. Parafilm was stretched over the 96-well microtiter plate and a plastic stencil with 96 holes was placed onto the plate. Aphids were sieved into the wells directly onto the Parafilm. The infested plates were closed with a gel blotting card and a second plastic stencil and then turned upside down. The samples were assessed for mortality 5 days after infestation.

[4] = test system: Plutella xylostella (Diamondback Moth); test: Example B14: Plutella xylostella, artificial diet in 96-well plates, eggs; settings: 216 h, application rate of 500 ppm, 9 days after infestation
Method: Example B14: Plutella xylostella (Diamondback Moth)
96-well microtiter plates containing artificial diet were treated with aqueous test solutions, prepared from 10′000 ppm DMSO stock solutions, by a liquid handling robot. After drying, eggs (˜30 per well) were infested onto a netted lid which was suspended above the diet. The eggs hatch and L1 larvae move down to the diet. The samples were assessed for mortality 9 days after infestation.
The following compounds gave an effect of at least 80% average mortality at an application rate of 500 ppm: • P2, P3, P5, P6, P7, P9, P15, P16, P17, P18, P20, P22, P24, P25, P30, P31, P32, P33, P38.

[5] = test system: Myzus persicae (Green Peach Aphid); test: Example B6: Myzus persicae feeding/contact activity, sunflower leaf discs; settings: foliar, 144 h, application rate of 200 ppm, aphid population of mixed ages, 6 days after infestation
Method: Example B6: Myzus persicae (Green Peach Aphid): Feeding/Contact Activity
(§1) Sunflower leaf discs were placed onto agar in a 24-well microtiter plate and sprayed with aqueous test solutions prepared from 10′000 ppm DMSO stock solutions. After drying, the leaf discs were infested with an aphid population of mixed ages. The samples were assessed for mortality 6 days after infestation.

[6] = test system: Euschistus heros (Neotropical Brown Stink Bug); test: Example B2: Euschistus heros, soybean leaves sprayed, N2 nymphs; settings: 120 h, application rate of 200 ppm, 5 days after infestation, in comparison to untreated samples, read-out: effect in at least one of the two categories (mortality or growth inhibition)
Method: Example B2: Euschistus heros (Neotropical Brown Stink Bug)
Soybean leaves on agar in 24-well microtiter plates were sprayed with aqueous test solutions prepared from 10′000 ppm DMSO stock solutions. After drying the leaves were infested with N2 nymphs. The samples were assessed for mortality and growth inhibition in comparison to untreated samples 5 days after infestation.
The following compounds gave an effect of at least 80% in at least one of the two categories (mortality or growth inhibition) at an application rate of 200 ppm: • P1, P2, P3, P7, P11, P12, P16, P17, P18, P22, P25, P29, P32, P33, P37, P38

[7] = test system: Thrips tabaci (Onion thrips); test: Example B12: Thrips tabaci feeding/contact activity, sunflower leaf discs; settings: foliar, 144 h, application rate of 200 ppm, thrips population of mixed ages, 6 days after infestation
Method: Example B12: Thrips tabaci (Onion thrips): Feeding/Contact Activity
as §1, with “on” for “onto”, “in” for “in a”, “plates” for “plate”, “drying” for “drying,”, “a thrips” for “an aphid”

[8] = test system: Plutella xylostella (Diamond Back Moth); test: Example B5: Plutella xylostella, artificial diet in 24-well plates, eggs; settings: 192 h, application rate of 200 ppm, 8 days after infestation, in comparison to untreated samples, read-out: effect in at least one of the two categories (mortality or growth inhibition)
Method: Example B5: Plutella xylostella (Diamond Back Moth)
24-well microtiter plates with artificial diet were treated with aqueous test solutions prepared from 10′000 ppm DMSO stock solutions by pipetting. After drying, Plutella eggs were pipetted through a plastic stencil onto a gel blotting paper and the plate was closed with it. The samples were assessed for mortality and growth inhibition in comparison to untreated samples 8 days after infestation.
The following compounds gave an effect of at least 80% in at least one of the two categories (mortality or growth inhibition) at an application rate of 200 ppm: • P1, P2, P3, P4, P5, P7, P8, P9, P14, P15, P16, P17, P18, P21, P22, P23, P24, P25, P27, P28, P29, P30, P31, P32, P33, P34, P35, P36

[9] = test system: Myzus persicae (Green Peach Aphid); test: Example B8: Myzus persicae intrinsic activity, sucrose solution under Parafilm, 24-well; settings: 120 h, test rate of 12 ppm, 5 days after infestation
Text: Example B8: Myzus persicae (Green Peach Aphid): Intrinsic Activity
Test compounds prepared from 10′000 ppm DMSO stock solutions were applied by pipette into 24-well microtiter plates and mixed with sucrose solution. The plates were closed with a stretched Parafilm. A plastic stencil with 24 holes was placed onto the plate and infested pea seedlings were placed directly on the Parafilm. The infested plate was closed with a gel blotting paper and another plastic stencil and then turned upside down. The samples were assessed for mortality 5 days after infestation.

[10] = test system: Myzus persicae (Green Peach Aphid); test: Example B7: Myzus persicae systemic activity, pea seedling roots in test solution; settings: 144 h, test rate of 24 ppm, 6 days after placing seedlings into test solutions
Method: Example B7: Myzus persicae (Green Peach Aphid): Systemic Activity
Roots of pea seedlings infested with an aphid population of mixed ages were placed directly into aqueous test solutions prepared from 10′000 DMSO stock solutions. The samples were assessed for mortality 6 days after placing seedlings into test solutions.

[11] = test system: Frankliniella occidentalis (Western Flower Thrips); test: Example B3: Frankliniella occidentalis feeding/contact activity, sunflower leaf discs; settings: foliar, 168 h, application rate of 200 ppm, population of mixed ages, 7 days after infestation
Method: Example B3: Frankliniella occidentalis (Western Flower Thrips):Feeding/Contact Activity
Sunflower leaf discs were placed on agar in 24-well microtiter plates and sprayed with aqueous test solutions prepared from […] stock solutions. After drying the leaf discs were infested with a Frankliniella population of mixed ages. The samples were assessed for mortality 7 days after infestation.

[12] = test system: Chilo suppressalis (Striped Rice Stemborer); test: Example B4: Chilo suppressalis, artificial diet, L2 larvae; settings: 144 h, application rate of 200 ppm, 6 days after infestation, in comparison to untreated samples, read-out: control in at least one of the categories (mortality, anti-feedant effect, or growth inhibition)
Method: Example B4: Chilo suppressalis (Striped Rice Stemborer)
24-well microtiter plates with artificial diet were treated with aqueous test solutions prepared from 10′000 ppm DMSO stock solutions by pipetting. After drying, the plates were infested with L2 larvae (6-8 per well). The samples were assessed for mortality, anti-feeding effect, and growth inhibition in comparison to untreated samples 6 days after infestation. Control of Chilo suppressalis by a test sample is given when at least one of the categories mortality, anti-feedant effect, and growth inhibition is higher than the untreated sample.

CC(c1nc(N=C(c2ccccc2)c2ccccc2)nn1-c1ncccn1)N(C)C(=O)c1cc(C(F)(F)F)cc(C(F)(F)F)c1 (stereo not drawn) [Compound P22, N-[1-[5-(benzhydrylideneamino)-2-pyrimidin-2-yl-1,2,4-triazol-3-yl]ethyl]-N-methyl-3,5-bis(trifluoromethyl)benzamide]
≥ 80%: percent effect (mortality or growth inhibition) at 200 ppm [1] | percent control (mortality, anti-feedant effect or growth inhibition) at 200 ppm [2] | mortality at 50 ppm [3] | mortality at 500 ppm [4] | mortality at 200 ppm [5] | percent effect (mortality or growth inhibition) at 200 ppm [6] | mortality at 200 ppm [7] | percent effect (mortality or growth inhibition) at 200 ppm [8] | mortality at 12 ppm [9]

CC(c1nc(N)nn1-c1ncccn1)N(C)C(=O)c1cc(C(F)(F)F)cc(C(F)(F)F)c1 (stereo not drawn) [Compound P7, N-[1-(5-amino-2-pyrimidin-2-yl-1,2,4-triazol-3-yl)ethyl]-N-methyl-3,5-bis(trifluoromethyl)benzamide]
≥ 80%: percent effect (mortality or growth inhibition) at 200 ppm [1] | percent control (mortality, anti-feedant effect or growth inhibition) at 200 ppm [2] | mortality at 50 ppm [3] | mortality at 500 ppm [4] | mortality at 200 ppm [5] | percent effect (mortality or growth inhibition) at 200 ppm [6] | mortality at 200 ppm [7] | percent effect (mortality or growth inhibition) at 200 ppm [8] | mortality at 12 ppm [9]

CC(c1nc(N(C)C)nn1-c1ncccn1)N(C)C(=O)c1cc(C(F)(F)F)cc(C(F)(F)F)c1 (stereo not drawn) [Compound P16, N-[1-[5-(dimethylamino)-2-pyrimidin-2-yl-1,2,4-triazol-3-yl]ethyl]-N-methyl-3,5-bis(trifluoromethyl) benzamide]
≥ 80%: percent effect (mortality or growth inhibition) at 200 ppm [1] | percent control (mortality, anti-feedant effect or growth inhibition) at 200 ppm [2] | mortality at 50 ppm [3] | mortality at 24 ppm [10] | mortality at 500 ppm [4] | mortality at 200 ppm [5] | mortality at 200 ppm [11] | percent effect (mortality or growth inhibition) at 200 ppm [6] | percent effect (mortality or growth inhibition) at 200 ppm [8] | mortality at 12 ppm [9]

COCc1nc(C(C)NC(=O)c2cc(C(F)(F)F)cc(C(F)(F)F)c2)n(-c2ncccn2)n1 (stereo not drawn) [Compound P2, N-[1-[5-(methoxymethyl)-2-pyrimidin-2-yl-1,2,4-triazol-3-yl]ethyl]-3,5-bis(trifluoromethyl)benzamide]
≥ 80%: percent effect (mortality or growth inhibition) at 200 ppm [1] | percent control (mortality, anti-feedant effect or growth inhibition) at 200 ppm [2] | mortality at 50 ppm [3] | mortality at 24 ppm [10] | mortality at 500 ppm [4] | percent effect (mortality or growth inhibition) at 200 ppm [6] | percent effect (mortality or growth inhibition) at 200 ppm [8] | mortality at 12 ppm [9]

CC(NC(=O)c1cc(C(F)(F)F)cc(C(F)(F)F)c1)c1nc(S(C)(=O)=O)nn1-c1ncccn1 (stereo not drawn) [Compound P21, N-[1-(5-methylsulfonyl-2-pyrimidin-2-yl-1,2,4-triazol-3-yl)ethyl]-3,5-bis(trifluoromethyl) benzamide]
≥ 80%: percent effect (mortality or growth inhibition) at 200 ppm [1] | percent control (mortality, anti-feedant effect or growth inhibition) at 200 ppm [2] | mortality at 50 ppm [3] | mortality at 24 ppm [10] | mortality at 200 ppm [5] | percent control (mortality, anti-feedant effect or growth inhibition) at 200 ppm [12] | percent effect (mortality or growth inhibition) at 200 ppm [8] | mortality at 12 ppm [9]

CNC(=O)c1nc(C(C)N(C)C(=O)c2cc(C(F)(F)F)cc(C(F)(F)F)c2)n(-c2ncccn2)n1 (stereo not drawn) [Compound P12, 5-[1-[[3.5-bis(trifluoromethyl)benzoyl]-methyl-amino]ethyl]-N-methyl-1-pyrimidin-2-yl-1,2,4-triazole-3-carboxamide]
≥ 80%: mortality at 50 ppm [3] | mortality at 24 ppm [10] | mortality at 200 ppm [5] | mortality at 200 ppm [11] | percent effect (mortality or growth inhibition) at 200 ppm [6] | percent control (mortality, anti-feedant effect or growth inhibition) at 200 ppm [12] | mortality at 12 ppm [9]

CC(c1nc(I)nn1-c1ncccn1)N(CC1CC1)C(=O)c1cc(C(F)(F)F)cc(C(F)(F)F)c1 (stereo not drawn) [Compound P5, N-(cyclopropylmethyl)-N-[1-(5-iodo-2-pyrimidin-2-yl-1,2,4-triazol-3-yl)ethyl]-3,5-bis(trifluoromethyl) benzamide]
≥ 80%: percent effect (mortality or growth inhibition) at 200 ppm [1] | percent control (mortality, anti-feedant effect or growth inhibition) at 200 ppm [2] | mortality at 50 ppm [3] | mortality at 500 ppm [4] | mortality at 200 ppm [7] | percent effect (mortality or growth inhibition) at 200 ppm [8]

— patent US12152020B2, “Pesticidally active azole-amide compounds” (SYNGENTA PARTICIPATIONS AG, priority 2018, dated 2024)
